In patent US20150191519A1, “VECTORS ENCODING A PARALYTIC PEPTIDE” (Soricimed Biopharma Inc., priority 2002, published 2015):

Experiments:
[1] = system: human ovarian carcinoma cell line (OV 2008); assay: calcium ion uptake by FURA-loaded ovarian carcinoma cells (fluorescence); assay type: cell-based; conditions: for calcium uptake by OV-2008 cell line: FURA fluorescence after calcium chloride 2.5 mM, calcium chloride 5.0 mM, FIG. 16
Method: A human ovarian carcinoma cell line (OV 2008) was grown in MegaCell supplemented (Sigma Aldrich Chemical Co.) with 3% fetal calf serum (v/v), L-glutamine (584 mg/500 mL), and antibiotics penicillin and streptomycin (50 ug/ml) at 37° C. and in a humidified 5% carbon dioxide atmosphere. After confluence, the cells were harvested by incubation with Trypsin EDTA solution low in calcium and magnesium Dulbecco phosphate buffered saline (DPBS) at 37° C. and gentle shaking to detach them from the culture flask surface. After centrifugation and washing in the calcium-depleted medium, cells were incubated with 5 uM FURA 2 AM for 60 minutes to internalize this calcium sensitive fluorophore. After centrifuging and washing twice with DPBS, cells were allowed to de-esterify the FURA 2 AM for 30 minutes at 37° C., activating the calcium-sensitive FURA. Cells were then incubated with aliquots of a solution of pure soricidin. Fluorescent analysis used excitation at 340 nm and emission at a wavelength of 510 nm. After recording the baseline fluorescence of the cells, a bolus of calcium chloride (to final concentration of 2.5 mM) was delivered to the cell suspension and the fluorescence remeasured. After recording the fluorescence, the sample was treated with a bolus of potassium chloride (final concentration 20 mM) to activate any voltage gated calcium channels. Finally, the cells were treated with another bolus of […] raising the calcium ion concentration to 5.0 mM. The control situation was no treatment with soricidin peptide but with identical other treatments.
This transient receptor potential (TRP) calcium channel was blocked by soricidin. FIG. 16 illustrates

[2] = isoelectric pH by capillary isoelectric focusing; assay type: physicochemical; conditions: migration time 33.9 min; calibrated with pI standard proteins
Method: The isoelectric pH of the shrew peptide soricidin was determined after calibration of the Beckmann-Coulter P/ACE MDQ Capillary Electrophoresis System with proteins of known isoelectric pH (2.75, 5.10, 5.90 and 9.45) and then co-isoelectric focusing of the standards with soricidin. […] The soricidin migration time (33.9 min) provided a pI of 4.20.

[3] = system: insect nerve tissue; assay: calcium ion uptake by excised insect nerve tissue (FURA fluorescence); assay type: cell-based, flour beetle larvae (meal worms); conditions: FIG. 17
Method: Central nerve pairs running along 5 body segments (including ganglia) were excised from flour beetle larvae (meal worms) and suspended in buffered invertebrate saline containing FURA 2 AM. After 60 minutes, the nerve tissue was removed from this solution, briefly washed in buffered saline and bathed with a solution of pure soricidin for 10 minutes. The nerve tissue was next immersed in a cuvette containing very low calcium ion concentration and a baseline fluorescence value recorded. A bolus of calcium chloride (to a final concentration of 5 mM) was added and, after 5 minutes, the fluorescence was determined. Finally, a bolus of potassium chloride was added to the preparation to a final concentration of 20 mM. The fluorescence was again determined. The control situation was exclusion of the soricidin, substituting instead a sham solution of buffered saline.

soricidin: 54 amino acid paralytic peptide isolated from shrew (Blarina brevicauda) submaxilary saliva gland, sequence of FIG. 1A (DCSQDCAACSILARPAELNTETCILECEGKLSSNDTEGGLCKEFLHPSKVDLPR; listed as Blarina brevicauda)
calcium uptake by OV-2008 cell line ([1]; KCl 20 mM): inhibits calcium uptake | calcium uptake by OV-2008 cell line ([1]; KCl 20 mM, listed as Soricidin): strongly inhibits calcium uptake | TRP calcium channel CaT1 (TRPV6) of ovarian carcinoma cells ([1]; OV-2008): blocked | small increase in calcium uptake in response to potassium ion challenge ([1]; OV-2008, KCl 20 mM): eliminated | dose dependence of inhibition of calcium uptake ([1]; OV-2008, increases in amount caused no additional inhibition): saturated | isoelectric pH (pI) [2]: 4.20 | calcium uptake / calcium channels of insect neural tissue [3]: effectively blocks the general and voltage-gated calcium channels | calcium uptake / calcium channels of insect neural tissue ([3]; listed as Soricidin): inhibits calcium uptake | increase in fluorescence (FURA/Calcium complex) less than in control ([3]; nerve bathed in pure soricidin 10 minutes, calcium chloride and KCl 20 mM challenge): 92%
